According to patent US11702422B2, “Imidazopyridazines as modulators of IL-17” (Janssen Pharmaceutica NV, priority 2020, dated 2023):

How the values were obtained:
[1] = target: IL-17A(FLAG-Tagged): IL-17RA(His-Tagged) (Homo sapiens, UniProt Q16552, K93Q); assay: IL-17A(FLAG-Tagged): IL-17RA(His-Tagged) Binding Disruption Eu-HTRF Assay; conditions: IL-17A/IL-17RA binding disruption, simple average if tested more than once
How it was run: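 IC50 comes from a one-site competition fit of the HTRF 665/620 nm ratio. Compound dilutions (2-fold, 22 points) were held 1 h rt with FLAG-tagged IL-17A dimer, then His-tagged IL-17RA plus Eu-cryptate anti-FLAG and D2 anti-His antibodies were added for 2 h rt.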

[2] = system: IL-17A-induced G-CSF production in human normal keratinocyte (NHK); assay: NHK Assay: IL-17A-induced G-CSF production in human normal keratinocytes; format: cell-based; conditions: Homo sapiens, Keratinocyte, 24 h, adult normal human keratinocytes, IL-17A 5 ng/mL, simple average if tested more than once
How it was run: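 Adult NHK, 3000-4000 cells/well; rhIL-17A + titrated cpd preincubated 1 h rt, then onto cells. Final: IL-17A 5 ng/mL, DMSO 0.2%, 5% FBS. 24 h, 37° C. G-CSF in supernatant by HTRF vs standard curve; IC50. Viability by CellTiter-Glo vs DMSO.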

Chain of UniProt Q16552 (Q16552 with tags, fused parts or gaps K93Q): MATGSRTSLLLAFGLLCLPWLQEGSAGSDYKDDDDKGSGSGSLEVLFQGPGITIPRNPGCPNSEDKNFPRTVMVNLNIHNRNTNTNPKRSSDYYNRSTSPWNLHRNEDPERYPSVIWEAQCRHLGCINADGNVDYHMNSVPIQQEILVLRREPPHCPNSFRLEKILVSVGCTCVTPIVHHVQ

| Compound | IC50 [1] | IC50 [2] |
| --- | --- | --- |
| CCc1cncc(C(=O)N[C@H](c2cn3ncc([C@H](NC(=O)CCC(F)(F)F)C4CC4)cc3n2)C2CCC(F)(F)CC2)c1 [Example 452, N—((S)-(7-((R)-Cyclopropyl(4,4,4-trifluorobutanamido)methyl)imidazo[1,2-b]pyridazin-2-yl)(4,4-difluorocyclohexyl)methyl)-5-ethylnicotinamide] | 100 nM | 570 nM |
| CCc1ccnc(C(=O)N[C@H](c2cn3ncc([C@H](NC(=O)CCC(F)(F)F)C4CC4)cc3n2)C2CCC(F)(F)CC2)c1 [Example 453, N—((S)-(7-((R)-Cyclopropyl(4,4,4-trifluorobutanamido)methyl)imidazo[1,2-b]pyridazin-2-yl)(4,4-difluorocyclohexyl)methyl)-4-ethylpicolinamide] | 150 nM | 3900 nM |
| Cc1cncc(C(=O)N[C@H](c2cn3ncc([C@H](NC(=O)CCC(F)(F)F)C4CC4)cc3n2)C2CCC(F)(F)CC2)c1 [Example 454, N—((S)-(7-((R)-Cyclopropyl(4,4,4-trifluorobutanamido)methyl)imidazo[1,2-b]pyridazin-2-yl)(4,4-difluorocyclohexyl)methyl)-5-methylnicotinamide] | 320 nM | 3400 nM |
| O=C(CCC(F)(F)F)N[C@@H](c1cnn2cc([C@@H](NC(=O)c3cncc(C(F)F)c3)C3CCC(F)(F)CC3)nc2c1)C1CC1 [Example 455, N—((S)-(7-((R)-Cyclopropyl(4,4,4-trifluorobutanamido)methyl)imidazo[1,2-b]pyridazin-2-yl)(4,4-difluorocyclohexyl)methyl)-5-(difluoromethyl)nicotinamide] | 130 nM | 850 nM |
| O=C(CCC(F)(F)F)N[C@@H](c1cnn2cc([C@@H](NC(=O)c3ccccn3)C3CCC(F)(F)CC3)nc2c1)C1CC1 [Example 456, N—((S)-(7-((R)-Cyclopropyl(4,4,4-trifluorobutanamido)methyl)imidazo[1,2-b]pyridazin-2-yl)(4,4-difluorocyclohexyl)methyl)picolinamide] | 780 nM | > 20000 nM |
| O=C(CCC(F)(F)F)N[C@@H](c1cnn2cc([C@@H](NC(=O)c3ccnnc3)C3CCC(F)(F)CC3)nc2c1)C1CC1 [Example 457, N—((S)-(7-((R)-Cyclopropyl(4,4,4-trifluorobutanamido)methyl)imidazo[1,2-b]pyridazin-2-yl)(4,4-difluorocyclohexyl)methyl)pyridazine-4-carboxamide] | 1200 nM | 2900 nM |
| O=C(CCC(F)(F)F)N[C@@H](c1cnn2cc([C@@H](NC(=O)c3cccnn3)C3CCC(F)(F)CC3)nc2c1)C1CC1 [Example 458, N—((S)-(7-((R)-Cyclopropyl(4,4,4-trifluorobutanamido)methyl)imidazo[1,2-b]pyridazin-2-yl)(4,4-difluorocyclohexyl)methyl)pyridazine-3-carboxamide] | 7800 nM | > 20000 nM |
| COc1cc(C(=O)N[C@H](c2cn3ncc([C@H](NC(=O)CCC(F)(F)F)C4CC4)cc3n2)C2CCC(F)(F)CC2)cnn1 [Example 459, N—((S)-(7-((R)-Cyclopropyl(4,4,4-trifluorobutanamido)methyl)imidazo[1,2-b]pyridazin-2-yl)(4,4-difluorocyclohexyl)methyl)-6-methoxypyridazine-4-carboxamide] | 1300 nM | > 20000 nM |
| O=C(CCC(F)(F)F)N[C@@H](c1cnn2cc([C@@H](NC(=O)c3cc(C4CC4)ccn3)C3CCC(F)(F)CC3)nc2c1)C1CC1 [Example 460, 4-Cyclopropyl-N—((S)-(7-((R)-cyclopropyl(4,4,4-trifluorobutanamido)methyl)imidazo[1,2-b]pyridazin-2-yl)(4,4-difluorocyclohexyl)methyl)picolinamide] | 110 nM | 1100 nM |
| N#Cc1ccnc(C(=O)N[C@H](c2cn3ncc([C@H](NC(=O)CCC(F)(F)F)C4CC4)cc3n2)C2CCC(F)(F)CC2)c1 [Example 461, 4-Cyano-N—((S)-(7-((R)-cyclopropyl(4,4,4-trifluorobutanamido)methyl)imidazo[1,2-b]pyridazin-2-yl)(4,4-difluorocyclohexyl)methyl)picolinamide] | 1600 nM | > 20000 nM |
| COCc1cncc(C(=O)N[C@H](c2cn3ncc([C@H](NC(=O)CCC(F)(F)F)C4CC4)cc3n2)C2CCC(F)(F)CC2)c1 [Example 462, N—((S)-(7-((R)-Cyclopropyl(4,4,4-trifluorobutanamido)methyl)imidazo[1,2-b]pyridazin-2-yl)(4,4-difluorocyclohexyl)methyl)-5-(methoxymethyl)nicotinamide] | 140 nM | 1100 nM |
| CC(C)c1ccsc1C(=O)N[C@H](c1cn2ncc([C@H](NC(=O)CCC(F)(F)F)C3CC3)cc2n1)C1CCC(F)(F)CC1 [Example 463, N—((S)-(7-((R)-Cyclopropyl(4,4,4-trifluorobutanamido)methyl)imidazo[1,2-b]pyridazin-2-yl)(4,4-difluorocyclohexyl)methyl)-3-isopropylthiophene-2-carboxamide] | 94 nM | 380 nM |
| COc1cc(C(=O)N[C@H](c2cn3ncc([C@H](NC(=O)CCC(F)(F)F)C4CC4)cc3n2)C2CCC(F)(F)CC2)ncn1 [Example 465, N—((S)-(7-((R)-Cyclopropyl(4,4,4-trifluorobutanamido)methyl)imidazo[1,2-b]pyridazin-2-yl)(4,4-difluorocyclohexyl)methyl)-6-methoxypyrimidine-4-carboxamide] | 920 nM | 1600 nM |
| Cn1nnnc1C(=O)N[C@H](c1cn2ncc([C@H](NC(=O)CCC(F)(F)F)C3CC3)cc2n1)C1CCC(F)(F)CC1 [Example 468, N—((S)-(7-((R)-Cyclopropyl(4,4,4-trifluorobutanamido)methyl)imidazo[1,2-b]pyridazin-2-yl)(4,4-difluorocyclohexyl)methyl)-1-methyl-1H-tetrazole-5-carboxamide] | 750 nM | 1700 nM |
| Cn1ccnc1C(=O)N[C@H](c1cn2ncc([C@H](NC(=O)CCC(F)(F)F)C3CC3)cc2n1)C1CCC(F)(F)CC1 [Example 469, N—((S)-(7-((R)-Cyclopropyl(4,4,4-trifluorobutanamido)methyl)imidazo[1,2-b]pyridazin-2-yl)(4,4-difluorocyclohexyl)methyl)-1-methyl-1H-imidazole-2-carboxamide] | 1200 nM | > 20000 nM |
| CCc1cnoc1C(=O)N[C@H](c1cn2ncc([C@H](NC(=O)CCC(F)(F)F)C3CC3)cc2n1)C1CCC(F)(F)CC1 [Example 470, N—((S)-(7-((R)-Cyclopropyl(4,4,4-trifluorobutanamido)methyl)imidazo[1,2-b]pyridazin-2-yl)(4,4-difluorocyclohexyl)methyl)-4-ethylisoxazole-5-carboxamide] | 54 nM | 110 nM |
| Cc1ncoc1C(=O)N[C@H](c1cn2ncc([C@H](NC(=O)CCC(F)(F)F)C3CC3)cc2n1)C1CCC(F)(F)CC1 [Example 471, N—((S)-(7-((R)-Cyclopropyl(4,4,4-trifluorobutanamido)methyl)imidazo[1,2-b]pyridazin-2-yl)(4,4-difluorocyclohexyl)methyl)-4-methyloxazole-5-carboxamide] | 380 nM | 2300 nM |
| Cc1nc(C)c(C(=O)N[C@H](c2cn3ncc([C@H](NC(=O)CCC(F)(F)F)C4CC4)cc3n2)C2CCC(F)(F)CC2)o1 [Example 472, N—((S)-(7-((R)-Cyclopropyl(4,4,4-trifluorobutanamido)methyl)imidazo[1,2-b]pyridazin-2-yl)(4,4-difluorocyclohexyl)methyl)-2,4-dimethyloxazole-5-carboxamide] | 45000 nM | > 20000 nM |
| Cc1noc(C(=O)N[C@H](c2cn3ncc([C@H](NC(=O)CCC(F)(F)F)C4CC4)cc3n2)C2CCC(F)(F)CC2)c1C [Example 473, N—((S)-(7-((R)-Cyclopropyl(4,4,4-trifluorobutanamido)methyl)imidazo[1,2-b]pyridazin-2-yl)(4,4-difluorocyclohexyl)methyl)-3,4-dimethylisoxazole-5-carboxamide] | 8500 nM | > 20000 nM |
| O=C(CCC(F)(F)F)N[C@@H](c1cnn2cc([C@@H](NC(=O)c3conc3C3CCC3)C3CCC(F)(F)CC3)nc2c1)C1CC1 [Example 474, 3-Cyclobutyl-N—((S)-(7-((R)-cyclopropyl(4,4,4-trifluorobutanamido)methyl)imidazo[1,2-b]pyridazin-2-yl)(4,4-difluorocyclohexyl)methyl)isoxazole-4-carboxamide] | 41 nM | 130 nM |
| O=C(CCC(F)(F)F)NC(c1cnn2cc(C(NC(=O)c3ncnn3CC3CC3(F)F)C3CCC(F)(F)CC3)nc2c1)C1CC1 [Example 475, N—((R)-(7-((S)-Cyclopropyl(4,4,4-trifluorobutanamido)methyl)imidazo[1,2-b]pyridazin-2-yl)(4,4-difluorocyclohexyl)methyl)-1-((2,2-difluorocyclopropyl)methyl)-1H-1,2,4-triazole-5-carboxamide] | 130 nM | 330 nM |
| CC(F)(F)CCn1ncnc1C(=O)N[C@H](c1cn2ncc([C@H](NC(=O)CCC(F)(F)F)C3CC3)cc2n1)C1CCC(F)(F)CC1 [Example 476, N—((S)-(7-((R)-Cyclopropyl(4,4,4-trifluorobutanamido)methyl)imidazo[1,2-b]pyridazin-2-yl)(4,4-difluorocyclohexyl)methyl)-1-(3,3-difluorobutyl)-1H-1,2,4-triazole-5-carboxamide] | 130 nM | 390 nM |
